SMILES strings stand for the structures.

The assay concerns TGFβ signaling. As to the kind of experiment: Lymphocyte responses to TGFβ (Smad phosphorylation and others). The format is cell-based, mouse. To be noted: low dose HF; 10 μM SB-431542. As to the method: FIG. 8. […] FIG. 8A is a set of FACS analyses of CD4^+ CD25^− T cells activated in Th1 or Th2 polarizing conditions, either in the presence or absence of TGFβ. DMSO, 10 nM HF, 10 nM MAZ1310, or 10 μM SB-431542 added as indicated at the time of activation. Intracellular cytokine staining was performed on expanded T cells on day 5.
FIG. 8B is a set of FACS analyses of CD8^+ T cells activated in the presence or absence of TGFβ and cultured with DMSO, 10 nM HF, 10 nM MAZ1310, or 10 μM SB-431542. Expanded cells were restimulated on day 5 and intracellular staining was performed.
FIG. 8C is a set of FACS analyses of CFSE-labeled B cells activated by LPS stimulation in the presence or absence of TGFβ plus DMSO, 10 nM HF, 10 nM MAZ1310, or 10 μM SB-431542. Intracellular IL-6 production in B cells restimulated with PMA plus ionomycin, or cell-surface IgA expression was determined 4 days after activation.
FIG. 8D depicts western blot analyses of purified CD4^+ CD25^− T cells treated with DMSO, 40 nM MAZ1310, titrating concentrations of HF (2.5-40 nM) or 10 μM SB-431542 for 30 minutes in complete medium supplemented with 0.1% fetal calf serum. T cells were then activated in the presence or absence of 3 ng/ml TGFβ. Whole cell extracts were prepared after 1 hour of stimulation and western blot analyses were performed using the indicated antibodies. […]

Consider `O=C(CC1NCCCC1O)Cn1cnc2cc(Br)c(Cl)cc2c1=O` (racemic) [HF, halofuginone], for which the “TGFβ-induced Smad phosphorylation and other lymphocyte responses to TGFβ” value is given as “inhibited neither”.

Values taken from patent publication US20120058133A1, “INHIBITION OF TRNA SYNTHETASES AND THERAPEUTIC APPLICATIONS THEREOF” (President and Fellows of Harvard College, priority 2009, published 2012).
